Measurements: US5284853A, “Angiotensin II receptor blocking 2,3,6 substituted quinazolinones” (American Cyanamid Company, priority 1993, dated 1994)
Where “and” joins values, the source holds several entries; their conditions need not be identical. Equal values may be shown once.

Test system: Angiotensin II (AII) vasopressor response
Test: AII Challenge: antagonism of the angiotensin II vasopressor response in conscious SHR
Format: in vivo, Spontaneously hypertensive rats (Male okamoto-Aoki SHR)
Conditions: for Average Change / Inhibition: n = 2; for Change / Control Before AII / Response After AII: per rat
[1] = 5 mg/kg I.V., AII 0.05 mcg/kg IV, 30 min post dose
[2] = 5 mg/kg I.V., AII 0.05 mcg/kg IV, 60 min post dose
[3] = 5 mg/kg I.V., AII 0.05 mcg/kg IV, 90 min post dose
[4] = 5 mg/kg I.V., AII 0.05 mcg/kg IV, 120 min post dose
[5] = 5 mg/kg I.V., AII 0.05 mcg/kg IV, 180 min post dose
[6] = 5 mg/kg I.V., AII 0.1 mcg/kg IV, 30 min post dose
[7] = 5 mg/kg I.V., AII 0.1 mcg/kg IV, 60 min post dose
[8] = 5 mg/kg I.V., AII 0.1 mcg/kg IV, 90 min post dose
[9] = 5 mg/kg I.V., AII 0.1 mcg/kg IV, 120 min post dose
[10] = 5 mg/kg I.V., AII 0.1 mcg/kg IV, 180 min post dose
[11] = 15 mg/kg I.V., AII 0.05 mcg/kg IV, 30 min post dose
[12] = 15 mg/kg I.V., AII 0.05 mcg/kg IV, 60 min post dose
[13] = 15 mg/kg I.V., AII 0.05 mcg/kg IV, 90 min post dose
[14] = 15 mg/kg I.V., AII 0.05 mcg/kg IV, 120 min post dose
[15] = 15 mg/kg I.V., AII 0.05 mcg/kg IV, 180 min post dose
[16] = 15 mg/kg I.V., AII 0.1 mcg/kg IV, 30 min post dose
[17] = 15 mg/kg I.V., AII 0.1 mcg/kg IV, 60 min post dose
[18] = 15 mg/kg I.V., AII 0.1 mcg/kg IV, 90 min post dose
[19] = 15 mg/kg I.V., AII 0.1 mcg/kg IV, 120 min post dose
[20] = 15 mg/kg I.V., AII 0.1 mcg/kg IV, 180 min post dose

## CCCCc1nc2ccc(C3CC(c4ccc(C)o4)=NO3)cc2c(=O)n1Cc1ccc(-c2ccccc2-c2nnn[nH]2)cc1 (stereo not shown) [Example 19]
[1]
  Average Change: 15.5 mmhg
  Inhibition: 72%
  Change: 11 mmhg and 20 mmhg
  Control Before AII: 165 mmhg and 200 mmhg
  Response After AII: 176 mmhg and 180 mmhg
[2]
  Average Change: 15 mmhg
  Inhibition: 73%
  Change: 20 mmhg and 10 mmhg
  Control Before AII: 160 mmhg and 195 mmhg
  Response After AII: 180 mmhg and 205 mmhg
[3]
  Average Change: 20 mmhg
  Inhibition: 64%
  Change: 25 mmhg and 15 mmhg
  Control Before AII: 155 mmhg and 190 mmhg
  Response After AII: 180 mmhg and 205 mmhg
[4]
  Average Change: 25 mmhg
  Inhibition: 55%
  Change: 35 mmhg and 15 mmhg
  Control Before AII: 150 mmhg and 175 mmhg
  Response After AII: 185 mmhg and 190 mmhg
[5]
  Average Change: 25 mmhg
  Inhibition: 55%
  Change: 33 mmhg and 17 mmhg
  Control Before AII: 165 mmhg and 185 mmhg
  Response After AII: 198 mmhg and 202 mmhg
[6]
  Average Change: 17.5 mmhg
  Inhibition: 83%
  Change: 20 mmhg and 15 mmhg
  Control Before AII: 160 mmhg and 205 mmhg
  Response After AII: 180 mmhg and 220 mmhg
[7]
  Average Change: 21 mmhg
  Inhibition: 68%
  Change: 25 mmhg and 17 mmhg
  Control Before AII: 160 mmhg and 193 mmhg
  Response After AII: 185 mmhg and 210 mmhg
[8]
  Average Change: 24 mmhg
  Inhibition: 63%
  Change: 25 mmhg and 23 mmhg
  Control Before AII: 175 mmhg and 187 mmhg
  Response After AII: 200 mmhg and 210 mmhg
[9]
  Average Change: 22.5 mmhg
  Inhibition: 65%
  Change: 20 mmhg and 25 mmhg
  Control Before AII: 165 mmhg and 175 mmhg
  Response After AII: 185 mmhg and 200 mmhg
[10]
  Average Change: 27.5 mmhg
  Inhibition: 58%
  Change: 25 mmhg and 30 mmhg
  Control Before AII: 170 mmhg and 185 mmhg
  Response After AII: 195 mmhg and 215 mmhg
[11]
  Average Change: 5 mmhg
  Inhibition: 83%
  Change: 0 mmhg and 10 mmhg
  Control Before AII: 165 mmhg and 150 mmhg
  Response After AII: 165 mmhg and 160 mmhg
[12]
  Average Change: 10 mmhg
  Inhibition: 67%
  Change: 10 mmhg
  Control Before AII: 155 mmhg and 150 mmhg
  Response After AII: 165 mmhg and 160 mmhg
[13]
  Average Change: 5 mmhg
  Inhibition: 83%
  Change: 5 mmhg
  Control Before AII: 155 mmhg and 150 mmhg
  Response After AII: 160 mmhg and 155 mmhg
[14]
  Average Change: 7.5 mmhg
  Inhibition: 75%
  Change: 5 mmhg and 10 mmhg
  Control Before AII: 150 mmhg
  Response After AII: 155 mmhg and 160 mmhg
[15]
  Average Change: 7.5 mmhg
  Inhibition: 75%
  Change: 0 mmhg and 15 mmhg
  Control Before AII: 160 mmhg and 140 mmhg
  Response After AII: 160 mmhg and 155 mmhg
[16]
  Average Change: 5 mmhg
  Inhibition: 89%
  Change: 0 mmhg and 10 mmhg
  Control Before AII: 165 mmhg and 160 mmhg
  Response After AII: 165 mmhg and 170 mmhg
[17]
  Average Change: 5 mmhg
  Inhibition: 89%
  Change: 0 mmhg and 10 mmhg
  Control Before AII: 165 mmhg and 160 mmhg
  Response After AII: 165 mmhg and 170 mmhg
[18]
  Average Change: 7.5 mmhg
  Inhibition: 83%
  Change: 10 mmhg and 5 mmhg
  Control Before AII: 155 mmhg and 150 mmhg
  Response After AII: 165 mmhg and 155 mmhg
[19]
  Average Change: 7.5 mmhg
  Inhibition: 83%
  Change: 10 mmhg and 5 mmhg
  Control Before AII: 155 mmhg
  Response After AII: 165 mmhg and 160 mmhg
[20]
  Average Change: 10 mmhg
  Inhibition: 78%
  Change: 0 mmhg and 20 mmhg
  Control Before AII: 170 mmhg and 150 mmhg
  Response After AII: 170 mmhg
